Structures can show the parent of a compound that is named as a salt.
Legend:
[1] = biological target: T1, recombinant human secreted phospholipase A2 (Homo sapiens, UniProt P14555); experiment: chromogenic assay for inhibitors of recombinant human secreted phospholipase A2 (diheptanoyl thio-PC/DTNB, 96 well microtiter plates); assay type: biochemical; details: included in the table for purposes of comparison only
T1 sequence (P14555 21-144): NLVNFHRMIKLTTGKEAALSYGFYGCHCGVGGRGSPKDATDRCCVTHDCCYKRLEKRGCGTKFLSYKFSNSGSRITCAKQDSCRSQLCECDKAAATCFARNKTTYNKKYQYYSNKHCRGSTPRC
From the text: The following chromogenic assay procedure was used to identify and evaluate inhibitors of recombinant human secreted phospholipase A2. The assay described herein has been adapted for high volume screening using 96 well microtiter plates. A general description of this assay method is found in the article, “Analysis of Human Synovial Fluid Phospholipase A2 on Short Chain Phosphatidylcholine-Mixed Micelles: Development of a Spectrophotometric Assay Suitable for a Microtiterplate Reader”, by Laure J. Reynolds, Lori L. Hughes, and Edward A Dennis, Analytical Biochemistry, 204, pp. 190-197, 1992 (the disclosure of which is incorporated herein by reference): […]
A measured volume of racemic dipheptanoyl thio PC supplied in chloroform at a concentration of 100 mg/ml is taken to dryness and redissolved in 10 millimolar […]
• 1. […] Read absorbance of wells at 405 nanometers with an automatic plate reader.
All compounds were tested in triplicate. […] Compounds initially found to be active were reassayed to confirm their activity and, if sufficiently active, IC50 values were determined. […] In all cases, % inhibition measured at 405 nanometers generated by enzyme reactions containing inhibitors relative to the uninhibited control reactions was determined. […] IC50 were determined by plotting log concentration versus inhibition values in the range from 10-90% inhibition.

melting point	SMILES	inhibiting sPLA2 (statement in words) [1]
168 to 170 °C	CCc1c(C(=O)C(N)=O)c2c(OCC(=O)N(C)OC)cccc2n1Cc1ccccc1 (as salt: hydrochloride) [Compound 2Ac, 2-[[3-(Aminooxoacetyl)-2-ethyl-1-(phenylmethyl)-1H-indol-4-yl]oxy]-N-(methyl)-N-(methyloxy)acetamide]	
217 °C (dec.)	CCc1c(C(=O)C(N)=O)c2c(OCC(=O)N(C)O)cccc2n1Cc1ccccc1 (as salt: hydrochloride) [Compound 2Ad, 2-[[3-(Aminooxoacetyl)-2-ethyl-1-(phenylmethyl)-1H-indol-4-yl]oxy]-N-(hydroxy)-N-(methyl)acetamide]	
176 to 178 °C	CCONC(=O)COc1cccc2c1c(C(=O)C(N)=O)c(CC)n2Cc1ccccc1 (as salt: hydrochloride) [Compound 2Ae, 2-[[3-(Aminooxoacetyl)-2-ethyl-1-(phenylmethyl)-1H-indol-4-yl]oxy]-N-(ethyloxy)acetamide]	
175 to 177 °C	C=CCONC(=O)COc1cccc2c1c(C(=O)C(N)=O)c(CC)n2Cc1ccccc1 (as salt: hydrochloride) [Compound 2Af, 2-[[3-(Aminooxoacetyl)-2-ethyl-1-(phenylmethyl)-1H-indol-4-yl]oxy]-N-(2-propenyloxy)acetamide]	
202 °C (dec.)	CCc1c(C(=O)C(N)=O)c2c(OCC(=O)N(O)C(C)C)cccc2n1Cc1ccccc1 (as salt: hydrochloride) [Compound 2Ag, 2-[[3-(Aminooxoacetyl)-2-ethyl-1-(phenylmethyl)-1H-indol-4-yl]oxy]-N-(hydroxy)-N-(2-propyl)acetamide]	
203 to 205 °C	CCc1c(C(=O)C(N)=O)c2c(OCC(=O)NOC(C)(C)C)cccc2n1Cc1ccccc1 (as salt: hydrochloride) [Compound 2Ah, 2-[[3-(Aminooxoacetyl)-2-ethyl-1-(phenylmethyl)-1H-indol-4-yl]oxy]-N-(tert-butyloxy)acetamide]	
167 to 169 °C	CCc1c(C(=O)C(N)=O)c2c(OCC(=O)NOCc3ccccc3)cccc2n1Cc1ccccc1 (as salt: hydrochloride) [Compound 2Aj, 2-[[3-(Aminooxoacetyl)-2-ethyl-1-(phenylmethyl)-1H-indol-4-yl]oxy]-N-(phenylmethyloxy)acetamide]	
205 °C (dec.)	CCc1c(C(=O)C(N)=O)c2c(OCC(=O)NOc3ccccc3)cccc2n1Cc1ccccc1 (as salt: hydrochloride) [Compound 2Al, 2-[[3-(Aminooxoacetyl)-2-ethyl-1-(phenylmethyl)-1H-indol-4-yl]oxy]-N-(phenyloxy)acetamide]	
210 °C (dec.)	CCc1c(C(=O)C(N)=O)c2c(OCC(=O)N(O)C3CCCCC3)cccc2n1Cc1ccccc1 (as salt: hydrochloride) [Compound 2An, 2-[[3-(Aminooxoacetyl)-2-ethyl-1-(phenylmethyl)-1H-indol-4-yl]oxy]-N-(cyclohexyl)-N-(hydroxy)acetamide]	
	CCc1c(C(=O)C(N)=O)c2c(OCC(=O)OC)cccc2n1Cc1ccccc1 [1 (SM), [[3-(2-Amino-1,2-dioxoethyl)-2-ethyl-1-(phenylmethyl)-1H-indol-4-yl]oxy]acetic acid methyl ester]	highly active
228 °C (dec.)	CCc1c(C(=O)C(N)=O)c2c(OCC(=O)NOC)cccc2n1Cc1ccccc1 [Compound 2Ab, 2-[[3-(Aminooxoacetyl)-2-ethyl-1-(phenylmethyl)-1H-indol-4-yl]oxy]-N-(methyloxy)acetamide]	
186.5 to 188.5 °C	CCc1c(C(=O)C(N)=O)c2c(OCC(=O)N(C)OCc3ccccc3)cccc2n1Cc1ccccc1 [Compound 2Ak, 2-[[3-(Aminooxoacetyl)-2-ethyl-1-(phenylmethyl)-1H-indol-4-yl]oxy]-N-(methyl)-N-(phenylmethyloxy)acetamide]	
146 to 147.5 °C	CCc1c(C(=O)C(N)=O)c2c(OCC(=O)N(C)Oc3ccccc3)cccc2n1Cc1ccccc1 [Compound 2Am, 2-[[3-(Aminooxoacetyl)-2-ethyl-1-(phenylmethyl)-1H-indol-4-yl]oxy]-N-(methyl)-N-(phenyloxy)acetamide]	
187 to 189 °C	CCc1c(CC(N)=O)c2c(OCC(=O)NO)cccc2n1Cc1ccccc1 [Compound 2Ba, 2-[[3-(2-Amino-2-oxoethyl)-2-ethyl-1-(phenylnmethyl)-1H-indol-4-yl]oxy]-N-(hydroxy)acetamide]	

— US6939890B2, “sPLA2 inhibitors” (Eli Lilly and Company, priority 1999, dated 2005)
